# Source: US8362012B2, “Benzoxazine benzimidazole derivative, a pharmaceutical composition comprising the same, and a use thereof” (Daewoong Pharmaceutical Co., Ltd., priority 2008, dated 2013)
# Target: T1, human vanilloid-1 (hVR-1) in hVR-1-HEK293 cell line (Homo sapiens, UniProt Q8NER1)
# T1 construct: expressed in transfected cells; host or cells: HEK293 Tet-on strain, doxycycline-induced
# Test: Inhibitory effect on calcium influx via a vanilloid receptor (capsaicin-stimulated, Fluo-3/AM)
# Format: cell-based
# Conditions: hVR-1-HEK293 cells, 1 μM of capsaicin, compounds 0.015˜2000 nM; read-out: I.A. (inhibitory activity), IC50 on intracellular calcium influx
# Procedure: The cell line can modulate the expression of VR-1, depending on whether doxycycline, a derivative of tetracycline, is present or not. […] Specifically, hVR-1-HEK293 cells were cultured in a T75 flask to about 80% confluency, separated from the flask by treating with trypsin solution, and then collected by centrifugation. The cells were suspended in a medium containing 1 μg/mL of doxycycline, and the resulting suspension was diluted to a concentration of 2˜4×10^5 cells/mL […], of the cell suspension was placed in each well of a 96-well black plate. The cells were cultured in 5% CO2 incubator at 37° C. for 2 days, and used for the following procedure. […] The cells prepared in 1) above were cultured at 37° C. for 90 min in a solution containing Fluo-3/AM, a fluorescent dye, as a calcium indicator so that the fluorescent dye was permeated into the cells. […] In order to stimulate calcium influx through a vanilloid receptor, the cells were treated with 1 μM of capsaicin. […] The obtained data were input to the Hill equation represented by the following formula I and the values were analyzed: Intracellular calcium influx= [(fluorescent intensity of experimental group−fluorescent intensity of background)/(fluorescent intensity of positive control−fluorescent intensity of background)]*100 [Formula I] The inhibitory activities were evaluated from the obtained intracellular calcium influx values according to the following criteria.
# T1 sequence (Q8NER1 whole entry): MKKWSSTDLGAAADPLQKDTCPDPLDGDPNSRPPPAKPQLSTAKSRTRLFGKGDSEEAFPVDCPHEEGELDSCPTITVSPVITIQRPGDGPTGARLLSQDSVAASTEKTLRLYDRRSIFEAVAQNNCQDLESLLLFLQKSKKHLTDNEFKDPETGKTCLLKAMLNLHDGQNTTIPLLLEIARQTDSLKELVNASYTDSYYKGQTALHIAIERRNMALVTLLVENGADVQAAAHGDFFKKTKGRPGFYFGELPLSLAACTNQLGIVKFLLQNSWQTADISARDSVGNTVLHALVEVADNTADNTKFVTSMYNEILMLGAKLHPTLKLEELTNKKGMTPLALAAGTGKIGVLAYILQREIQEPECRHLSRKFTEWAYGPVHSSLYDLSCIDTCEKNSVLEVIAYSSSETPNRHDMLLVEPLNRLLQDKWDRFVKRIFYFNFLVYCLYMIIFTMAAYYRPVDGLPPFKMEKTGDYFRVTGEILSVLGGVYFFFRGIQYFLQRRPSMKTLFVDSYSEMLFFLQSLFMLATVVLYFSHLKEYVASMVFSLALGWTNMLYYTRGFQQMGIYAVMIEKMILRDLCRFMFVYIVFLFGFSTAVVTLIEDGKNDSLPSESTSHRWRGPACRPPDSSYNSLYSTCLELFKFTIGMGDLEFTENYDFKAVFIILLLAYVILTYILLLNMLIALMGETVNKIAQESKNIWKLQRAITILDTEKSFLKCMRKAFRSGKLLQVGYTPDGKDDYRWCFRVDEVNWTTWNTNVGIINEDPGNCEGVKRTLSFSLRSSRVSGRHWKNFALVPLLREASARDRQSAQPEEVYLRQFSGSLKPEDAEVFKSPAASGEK
row,SMILES,IC50
1,"CC(C)(C)c1ccc2nc(-c3cccc4c3OCCN4c3ncccc3Cl)[nH]c2c1 [Example 6, 8-(6-tert-butyl-1H-benzimidazol-2-yl)-4-(3-chloro-pyridin-2-yl)-3,4-dihydro-2H-benzo[1,4]oxazine]",101 to 500 nM
2,"CC(C)(C)c1ccc2nc(-c3cccc4c3OCCN4c3ncccc3C(F)(F)F)[nH]c2c1 [Example 7, 8-(6-tert-butyl-1H-benzimidazol-2-yl)-4-(3-trifluoromethyl-pyridin-2-yl)-3,4-dihydro-2H-benzo[1,4]oxazine]",> 1000 nM
3,"CC(C)(C)c1ccc2nc(-c3cccc4c3OCCN4c3ccc(C(F)(F)F)cn3)[nH]c2c1 [Example 8, 8-(6-tert-butyl-1H-benzimidazol-2-yl)-4-(5-trifluoromethyl-pyridin-2-yl)-3,4-dihydro-2H-benzo[1,4]oxazine]",101 to 500 nM
4,"CC(C)(C)c1ccc2nc(-c3cccc4c3OCCN4c3ncc(C(F)(F)F)cc3Cl)[nH]c2c1 [Example 9, 8-(6-tert-butyl-1H-benzimidazol-2-yl)-4-(3-chloro-5-trifluoromethyl-pyridin-2-yl)-3,4-dihydro-2H-benzo[1,4]oxazine]",101 to 500 nM
5,"Cc1ccc(N2CCOc3c(-c4nc5cc(C(C)(C)C)ccc5[nH]4)cccc32)nc1 [Example 10, 8-(5-tert-butyl-1H-benzimidazol-2-yl)-4-(5-methyl-pyridin-2-yl)-3,4-dihydro-2H-benzo[1,4]oxazine]",< 20 nM
6,"CC(C)(C)c1ccc2[nH]c(-c3cccc4c3OCCN4c3ncc(Cl)cc3Cl)nc2c1 [Example 11, 8-(5-tert-butyl-1H-benzimidazol-2-yl)-4-(3,5-dichloro-pyridin-2-yl)-3,4-dihydro-2H-benzo[1,4]oxazine]",20 to 100 nM
7,"CC(C)(C)c1ccc2[nH]c(-c3cccc4c3OCCN4c3ccccn3)nc2c1 [Example 12, 8-(5-tert-butyl-1H-benzimidazol-2-yl)-4-pyridin-2-yl-3,4-dihydro-2H-benzo[1,4]oxazine]",101 to 500 nM
8,"CC(C)(C)c1ccc2[nH]c(-c3cccc4c3OCCN4c3ccc(Br)cn3)nc2c1 [Example 13, 4-(5-bromo-pyridin-2-yl)-8-(5-tert-butyl-1H-benzimidazol-2-yl)-3,4-dihydro-2H-benzo[1,4]oxazine]",20 to 100 nM
9,"CC(C)(C)c1ccc2[nH]c(-c3cccc4c3OCCN4c3ccc(Cl)cn3)nc2c1 [Example 14, 8-(5-tert-butyl-1H-benzimidazol-2-yl)-4-(5-chloro-pyridin-2-yl)-3,4-dihydro-2H-benzo[1,4]oxazine]",20 to 100 nM
10,"CC(C)(C)c1ccc2[nH]c(-c3cccc4c3OCCN4c3ccc(CO)cn3)nc2c1 [Example 15, 6-[8-(5-tert-butyl-1H-benzimidazol-2-yl)-2,3-dihydro-benzo[1,4]oxazin-4-yl]-pyridin-3-yl-methanol]",101 to 500 nM
11,"FC(F)(F)c1ccc2nc(-c3cccc4c3OCCN4c3ncccc3Cl)[nH]c2c1 [Example 16, 4-(3-chloro-pyridin-2-yl)-8-(6-trifluoromethyl-1H-benzimidazol-2-yl)-3,4-dihydro-2H-benzo[1,4]oxazine]",101 to 500 nM
12,"FC(F)(F)c1ccc2nc(-c3cccc4c3OCCN4c3ncccc3C(F)(F)F)[nH]c2c1 [Example 17, 8-(6-trifluoromethyl-1H-benzimidazol-2-yl)-4-(3-trifluoromethyl-pyridin-2-yl)-3,4-dihydro-2H-benzo[1,4]oxazine]",> 1000 nM
13,"Clc1cccnc1N1CCOc2c(-c3nc4ccc(Br)cc4[nH]3)cccc21 [Example 21, 8-(6-bromo-1H-benzimidazol-2-yl)-4-(3-chloro-pyridin-2-yl)-3,4-dihydro-2H-benzo[1,4]oxazine]",101 to 500 nM
14,"Clc1ccc2nc(-c3cccc4c3OCCN4c3ncccc3Cl)[nH]c2c1 [Example 22, 8-(6-chloro-1H-benzimidazol-2-yl)-4-(3-chloro-pyridin-2-yl)-3,4-dihydro-2H-benzo[1,4]oxazine]",> 1000 nM
15,"Cc1ccc(N2CCOc3c(-c4nc5ccc(Br)cc5[nH]4)cccc32)nc1 [Example 26, 8-(6-bromo-1H-benzimidazol-2-yl)-4-(5-methyl-pyridin-2-yl)-3,4-dihydro-2H-benzo[1,4]oxazine]",101 to 500 nM
16,"Cc1ccc(N2CCOc3c(-c4nc5cc(Cl)ccc5[nH]4)cccc32)nc1 [Example 27, 8-(5-chloro-1H-benzimidazol-2-yl)-4-(5-methyl-pyridin-2-yl)-3,4-dihydro-2H-benzo[1,4]oxazine]",101 to 500 nM

row,SMILES,IC50
1,"Cc1ccc(N2CCOc3c(-c4nc5c(Cl)cc(C(F)(F)F)cc5[nH]4)cccc32)nc1 [Example 29, 8-(4-chloro-6-trifluoromethyl-1H-benzimidazol-2-yl)-4-(5-methyl-pyridin-2-yl)-3,4-dihydro-2H-benzo[1,4]oxazine]",101 to 500 nM
2,"Cc1ccc(N2CCOc3c(-c4nc5c(C(F)(F)F)cc(C(F)(F)F)cc5[nH]4)cccc32)nc1 [Example 30, 8-(4,6-bis-trifluoromethyl-1H-benzimidazol-2-yl)-4-(5-methyl-pyridin-2-yl)-3,4-dihydro-2H-benzo[1,4]oxazine]",101 to 500 nM
3,"Cc1ccc(N2CCOc3c(-c4nc5c(Br)cc(Br)cc5[nH]4)cccc32)nc1 [Example 32, 8-(4,6-dibromo-1H-benzimidazol-2-yl)-4-(5-methyl-pyridin-2-yl)-3,4-dihydro-2H-benzo[1,4]oxazine]",101 to 500 nM
4,"Cc1ccc(N2c3cccc(-c4nc5c(Br)cc(OC(F)(F)F)cc5[nH]4)c3OC[C@@H]2CO)nc1 [Example 54, [(S)-8-(4-bromo-6-trifluoromethoxy-1H-benzimidazol-2-yl)-4-(5-methyl-pyridine-2-yl)-3,4-dihydro-2H-benzo[1,4]oxazin-3-yl]-methanol]",< 20 nM
5,"Cc1ccc(N2c3cccc(-c4nc5c(F)cc(F)cc5[nH]4)c3OC[C@@H]2CO)nc1 [Example 55, [(S)-8-(4,6-difluoro-1H-benzo[d]imidazol-2-yl)-4-(5-methyl-pyridin-2-yl)-3,4-dihydro-2H-benzo[b][1,4]oxazin-3-yl]-methanol]",< 20 nM
6,"Cc1ccc(N2c3cccc(-c4nc5ccc(C#N)cc5[nH]4)c3OC[C@@H]2CO)nc1 [Example 56, (S)-2-(3-(hydroxymethyl)-4-(5-methyl-pyridin-2-yl)-3,4-dihydro-2H-benzo[b][1,4]oxazin-8-yl)-1H-benzo[d]imidazol-6-carbonitrile]",101 to 500 nM
7,"C=Cc1ccc(N2c3cccc(-c4nc5ccc(C(C)(C)C)cc5[nH]4)c3OC[C@@H]2CO)nc1 [Example 57, [(S)-8-(6-tert-butyl-1H-benzimidazol-2-yl)-4-(5-vinyl-pyridin-2-yl)-3,4-dihydro-2H-benzo[1,4]oxazin-3-yl]-methanol]",20 to 100 nM
8,"C=Cc1ccc(N2c3cccc(-c4nc5ccc(C(F)(F)F)cc5[nH]4)c3OC[C@@H]2CO)nc1 [Example 58, [(S)-8-(6-trifluoromethyl-1H-benzimidazol-2-yl)-4-(5-vinyl-pyridin-2-yl)-3,4-dihydro-2H-benzo[1,4]oxazin-3-yl]-methanol]",20 to 100 nM
9,"C=Cc1ccc(N2c3cccc(-c4nc5ccc(F)cc5[nH]4)c3OC[C@@H]2CO)nc1 [Example 61, [(S)-8-(6-fluoro-1H-benzimidazol-2-yl)-4-(5-vinyl-pyridin-2-yl)-3,4-dihydro-2H-benzo[1,4]oxazin-3-yl]-methanol]",20 to 100 nM
10,"C=Cc1ccc(N2c3cccc(-c4nc5c(F)cc(Br)cc5[nH]4)c3OC[C@@H]2CO)nc1 [Example 62, [(S)-8-(6-bromo-4-fluoro-1H-benzimidazol-2-yl)-4-(5-vinyl-pyridin-2-yl)-3,4-dihydro-2H-benzo[1,4]oxazin-3-yl]-methanol]",< 20 nM
11,"C=Cc1ccc(N2c3cccc(-c4nc5c(F)cc(F)cc5[nH]4)c3OC[C@@H]2CO)nc1 [Example 63, [(S)-8-(4,6-difluoro-1H-benzimidazol-2-yl)-4-(5-vinyl-pyridin-2-yl)-3,4-dihydro-2H-benzo[1,4]oxazin-3-yl]-methanol]",20 to 100 nM
12,"C=Cc1ccc(N2c3cccc(-c4nc5c(Br)cc(C(F)(F)F)cc5[nH]4)c3OC[C@@H]2CO)nc1 [Example 64, [(S)-8-(4-bromo-6-trifluoromethyl-1H-benzimidazol-2-yl)-4-(5-vinyl-pyridin-2-yl)-3,4-dihydro-2H-benzo[1,4]oxazin-3-yl]-methanol]",< 20 nM
13,"C=Cc1ccc(N2c3cccc(-c4nc5c(Cl)cc(C(F)(F)F)cc5[nH]4)c3OC[C@@H]2CO)nc1 [Example 65, [(S)-8-(4-chloro-6-trifluoromethyl-1H-benzimidazol-2-yl)-4-(5-vinyl-pyridin-2-yl)-3,4-dihydro-2H-benzo[1,4]oxazin-3-yl]-methanol]",< 20 nM
14,"C=Cc1ccc(N2c3cccc(-c4nc5cc(F)c(Cl)cc5[nH]4)c3OC[C@@H]2CO)nc1 [Example 70, [(S)-8-(6-chloro-5-fluoro-1H-benzimidazol-2-yl)-4-(5-vinyl-pyridin-2-yl)-3,4-dihydro-2H-benzo[1,4]oxazin-3-yl]-methanol]",20 to 100 nM
15,"C=Cc1ccc(N2c3cccc(-c4nc5c(C(F)(F)F)cc(C(F)(F)F)cc5[nH]4)c3OC[C@@H]2CO)nc1 [Example 71, ((S)-8-(4,6-bis(trifluoromethyl)-1H-benzo[d]imidazol-2-yl)-4-(5-vinyl-pyridin-2-yl)-3,4-dihydro-2H-benzo[b][1,4]oxazin-3-yl)-methanol]",101 to 500 nM
